Assay [1] deals with H3K18Ac in HB-CLS-2 cells. Nature of the assay: H3K18AC in-cell western (ICW) assay. Format: cell-based. Particulars: H3K18Ac in-cell western, read-out: CREBBP ICW IC50. Put shortly: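 In-cell western: after methanol fixation, blocking, overnight 4° C anti-H3K18Ac staining, then 800CW secondary plus DRAQ5 for DNA content, integrated intensities were scanned at 800 and 700 nm. Before this, compound exposure lasted 2 hr at 37° C in HB-CLS-2 cells plated 16–24 hours earlier. Values expressed as IC50 (μM).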

In assay [2] the target is T1, CREBBP (1084-1701) (Homo sapiens, UniProt Q92793).
T1 construct: measured in the following biochemical assay using CREBBP (1084-1701); purchased
T1 sequence (Q92793 1084-1701): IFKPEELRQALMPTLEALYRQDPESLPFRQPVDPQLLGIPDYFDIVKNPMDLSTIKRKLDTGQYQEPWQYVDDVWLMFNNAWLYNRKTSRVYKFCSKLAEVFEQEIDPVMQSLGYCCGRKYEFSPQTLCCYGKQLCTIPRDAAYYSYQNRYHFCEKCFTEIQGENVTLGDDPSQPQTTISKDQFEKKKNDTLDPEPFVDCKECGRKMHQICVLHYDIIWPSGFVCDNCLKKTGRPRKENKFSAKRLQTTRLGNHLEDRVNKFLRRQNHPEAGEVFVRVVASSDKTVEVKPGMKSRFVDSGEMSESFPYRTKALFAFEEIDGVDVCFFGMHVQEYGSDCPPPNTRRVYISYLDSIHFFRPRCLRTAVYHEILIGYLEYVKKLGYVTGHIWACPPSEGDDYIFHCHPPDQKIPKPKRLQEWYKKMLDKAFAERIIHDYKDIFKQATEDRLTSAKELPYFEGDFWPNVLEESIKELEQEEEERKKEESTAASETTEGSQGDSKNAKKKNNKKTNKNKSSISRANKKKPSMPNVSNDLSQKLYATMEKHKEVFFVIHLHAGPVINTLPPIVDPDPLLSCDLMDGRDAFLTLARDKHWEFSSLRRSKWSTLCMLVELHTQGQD
Nature of the assay: Biochemical assay for CREBBP (1084-1701), SAMDI. The note with it: SAMDI, read-out: CREBBP Biochemistry IC50. Summed up: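 Acetyltransferase activity measured by SAMDI mass spectrometry after capture on biochip. Enzyme sat with compound 30 min at RT before acetyl-CoA and biotinylated H3 11-25 (K14R, K23R) peptide were added for 30 min at RT. Formic acid quench, bicarbonate neutralisation; IC50 values reported.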

The subject of assay [3] is 647V cells. Nature of the assay: High throughput proliferation (HTP) assay. It counts as cell-based. The note with it: high throughput proliferation, read-out: CREBBP HTP IC50. Summed up:
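Proliferation IC50 (micromolar) derived from a 7-day CellTiter-Glo viable-cell readout in 647V cells exposed, in triplicate, to rising compound concentrations; cells grown in DMEM plus 15% heat-inactivated FBS at 37° C under 5% CO2.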

For assay [4], the target named is T2, EP300 (P300(1048-1664)) (Homo sapiens, UniProt Q09472).
T2 construct: P300(1048-1664)
T2 sequence (Q09472 1048-1664): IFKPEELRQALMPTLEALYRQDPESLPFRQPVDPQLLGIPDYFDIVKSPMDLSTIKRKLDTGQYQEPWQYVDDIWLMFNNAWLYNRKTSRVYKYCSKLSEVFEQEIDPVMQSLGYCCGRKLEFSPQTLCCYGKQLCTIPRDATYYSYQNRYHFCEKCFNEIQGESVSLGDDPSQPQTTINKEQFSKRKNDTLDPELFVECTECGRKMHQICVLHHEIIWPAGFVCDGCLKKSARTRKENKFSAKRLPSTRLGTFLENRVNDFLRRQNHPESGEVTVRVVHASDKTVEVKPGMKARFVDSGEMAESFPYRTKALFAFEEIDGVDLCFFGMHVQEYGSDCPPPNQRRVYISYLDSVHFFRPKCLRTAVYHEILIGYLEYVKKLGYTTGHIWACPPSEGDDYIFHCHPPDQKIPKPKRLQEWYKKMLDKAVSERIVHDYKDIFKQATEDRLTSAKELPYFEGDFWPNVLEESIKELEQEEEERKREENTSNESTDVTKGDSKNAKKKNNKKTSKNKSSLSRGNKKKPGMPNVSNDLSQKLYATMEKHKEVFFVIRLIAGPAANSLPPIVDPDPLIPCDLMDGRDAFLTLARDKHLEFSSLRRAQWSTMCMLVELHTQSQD
Nature of the assay: Biochemical assay for EP300, SAMDI. Particulars: EP300, SAMDI; read-out: EP300 Biochemistry IC50. The text has this:
The following example describes materials and methods relating to a biochemical assay for EP300. IC50 values (micromolar (μM)) are summarized in Table 1, Table 2, and Table 3 under the column labeled: “EP300 Biochemistry IC50 (micromolar).”

Read-outs that look alike come from different tables or passages of the source.

Usually IC50 stands for the concentration that gives 50% inhibition.

In the case of `CCn1ncc(CN(C)C(=O)c2cc(-c3csc(CNC)n3)nc3ccc(Cl)cc23)c1C` [Compound 138], the IC50 is 5900 nM in assay [1], 12000 nM in assay [2], 8300 nM in assay [3] and 5200 nM in assay [4].
For `CCn1ncc(CN(C)C(=O)c2cc(-c3ccc(NCCS(C)(=O)=O)c(C)n3)nc3ccc(Cl)cc23)c1C` [Compound 625], the half-maximal inhibitory concentration (IC50) in assay [1] was 114 nM; in assay [2] it was 19.2 nM; in assay [3] (Homo sapiens, 647-V) it was 163 nM; in assay [4], 11.3 nM.
The like results for `CCn1ncc(CN(C)C(=O)c2nc(-c3ccc(OCCN(C)C(=O)OC(C)(C)C)c(OC)c3)nc3ccc(Cl)cc23)c1C` [Compound 148] were, in that order, 7200 nM, 7500 nM, 3900 nM and 11000 nM.
In the case of `CCn1ncc(CN(C)C(=O)c2nc(-c3cc(C)nc(NCCN(C)C)c3)nc3ccc(Cl)cc23)c1C` [Compound 469], the IC50 in assay [1] amounted to 56.1 nM; in assay [2] it was 19.3 nM; in assay [3] (Homo sapiens, 647-V), 29.2 nM; in assay [4] it was 10.9 nM.
For the compound `CCn1ncc(CN(C)C(=O)c2nc(-c3cc4c(N)[nH]nc4cc3C)nc3ccc(COC)cc23)c1C` [Compound 508], the IC50 in assay [1] was determined as 174 nM; in assay [2], 46.3 nM; in assay [3] (Homo sapiens, 647-V), 212 nM; in assay [4], 22.4 nM.
The matching figures for `CCn1ncc(CN(C)C(=O)c2nc(-c3ccc(OCCCNC)c(OC)c3)nc3ccc(Cl)cc23)c1C` [Compound 84]: 1300 nM, 820 nM, 850 nM and 2500 nM.
The like results for `CCc1ncc(CN(C)C(=O)c2cc(-c3ccc(OCC(O)CNC)c(C)n3)nc3ccc(COC)cc23)n1C` (centres unmarked) [Compound 477] were, in that order, 2070 nM, 141 nM, 1280 nM and 47.6 nM.
The like results for `CCn1ncc(CN(C)C(=O)c2nc(-c3ccc(OCC(O)CN4CCCC4)c(Cl)c3)nc3ccc(Cl)cc23)c1C` (centres unmarked) [Compound 27] were, in that order, 220 nM, 39 nM, 110 nM and 20 nM.
Take `CCc1noc(C(C)N(C)C(=O)c2nc(-c3cc4c(NC)[nH]nc4cc3C)nc3ccc(Cl)cc23)c1C` (centres unmarked) [Compound 622]: the IC50 in assay [1] is 1320 nM; in assay [2] it was 107 nM; in assay [3] (Homo sapiens, 647-V), 2300 nM; in assay [4], 383 nM.
Turning to `CCn1ncc(CN(C)C(=O)c2nc(-c3cc(C)c4n[nH]cc4c3)nc3ccc(Cl)cc23)c1C` [Compound 44], the IC50 in assay [1] was found to be 380 nM; in assay [2], 27 nM; in assay [3] (Homo sapiens, 647-V) it was 270 nM; in assay [4], 83 nM.
Turning to `CCn1ncc(CN(C)C(=O)c2cc(-c3ccc(NC4CNC4)c(C)n3)nc3ccc(Cl)cc23)c1C` [Compound 389], the IC50 in assay [1] (HB-CLS-2 cells) was 82 nM; in assay [2], 17 nM; in assay [3] (Homo sapiens, 647-V, 647V cells), 73 nM; in assay [4] it was 7.4 nM.
For `CCn1ncc(CN(C)C(=O)c2nc(-c3cc4n[nH]cc4cc3Cl)nc3ccc(Cl)cc23)c1C` [Compound 7], the IC50 is 77 nM in assay [1]; 9.5 nM in assay [2]; 66 nM in assay [3] (Homo sapiens, 647-V); 5.3 nM in assay [4].
Regarding `CCn1ncc(CN(C)C(=O)c2nc(-c3cnc4c[nH]nc4c3)nc3ccc(Cl)cc23)c1C` [Compound 581], the IC50 in assay [1] amounted to 513 nM; in assay [2], 3320 nM; in assay [3] (Homo sapiens, 647-V) it was 839 nM; in assay [4], 1430 nM.
The matching figures for `CCn1ncc(CN(C)C(=O)c2cc(-c3ccc(OCCNC)c(C)n3)nc3ccc(Cl)cc23)c1C` [Compound 442]: 195 nM, 76.9 nM, 350 nM and 414 nM.
